Results published in EP1415984A1, “Aryloxyarylsulfonylamino hydroxamic acid derivatives” (Pfizer Products Inc., priority 1997, dated 1999).
Several values for one entry are separate records, joined by “and”; a condition that tells them apart may be missing. Identical values can stand only once.

Assays:
[1] = target: T1, Human Collagenase (MMP-1) (Homo sapiens, UniProt P03956); assay: Inhibition of Human Collagenase (MMP-1), fluorogenic peptide substrate; format: biochemical; conditions: human recombinant collagenase activated with trypsin; each table line is a separate determination
T1 sequence (P03956 100-469): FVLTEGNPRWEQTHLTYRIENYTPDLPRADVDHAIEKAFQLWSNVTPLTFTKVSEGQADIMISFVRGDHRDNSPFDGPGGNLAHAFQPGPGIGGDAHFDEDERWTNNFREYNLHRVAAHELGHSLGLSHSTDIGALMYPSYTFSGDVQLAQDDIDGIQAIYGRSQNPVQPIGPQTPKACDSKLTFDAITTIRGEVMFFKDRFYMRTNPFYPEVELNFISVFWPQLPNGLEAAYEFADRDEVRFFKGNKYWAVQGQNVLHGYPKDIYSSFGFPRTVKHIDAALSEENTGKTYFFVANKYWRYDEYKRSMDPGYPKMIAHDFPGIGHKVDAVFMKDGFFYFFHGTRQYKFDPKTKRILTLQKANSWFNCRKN
Procedure: Inhibition of Human Collagenase (MMP-1)
Human recombinant collagenase is activated with trypsin using the following ratio: […] of collagenase. The trypsin and collagenase are incubated at room temperature for 10 minutes then a five fold excess (50 mg/10 mg trypsin) of soybean trypsin inhibitor is added.
10 mM stock solutions of inhibitors are made up in dimethyl sulfoxide and then diluted using the following Scheme: 10 mM ―> 120 µM ―> 12 µM ―> 1.2 µM ―> 0.12 µM
Twenty-five microliters of each concentration is then added in triplicate to appropriate wells of a 96 well microfluor plate. The final concentration of inhibitor will be a 1:4 dilution after addition of enzyme and substrate. Positive controls (enzyme, no inhibitor) are set up in wells D1-D6 and blanks (no enzyme, no inhibitors) are set in wells D7-D12.
Collagenase is diluted to 400 ng/ml and […] is then added to appropriate wells of the microfluor plate. Final concentration of collagenase in the assay is 100 ng/ml.
Substrate (DNP-Pro-Cha-Gly-Cys(Me)-His-Ala-Lys(NMA)-NH2) is made as a 5 mM stock in dimethyl sulfoxide and then diluted to […] in assay buffer. The assay is initiated by the addition of […] substrate per well of the microfluor plate to give a final concentration of […].
Fluorescence readings (360 nm excitation. 460 nm emission) were taken at time 0 and then at 20 minute intervals. The assay is conducted at room temperature with a typical assay time of 3 hours.
Fluorescence vs time is then plotted for both the blank and collagenase containing samples (data from triplicate determinations is averaged). […] The zero time is used as a blank for each compound at each concentration and these values are subtracted from the 120 minute data. Data is plotted as inhibitor concentration vs % control (inhibitor fluorescence divided by fluorescence of collagenase alone x 100). IC50's are determined from the concentration of inhibitor that gives a signal that is 50% of the control. […]

Human recombinant MMP-13 = Human recombinant MMP-13 (Homo sapiens, UniProt P45452); assay: Inhibition of MMP-13, fluorogenic peptide substrate; format: biochemical; conditions: human recombinant MMP-13 activated with APMA; each table line is a separate determination
Procedure: Human recombinant MMP-13 is activated with 2mM APMA (p-aminophenyl mercuric acetate) for 1.5 hours, at 37°C and is diluted to […] in assay buffer (50 mM Tris, pH 7.5, 200 mM sodium chloride, 5mM calcium chloride, […], 0.02% brij). Twenty-five microliters of diluted enzyme is added per well of a 96 well microfluor plate. The enzyme is then diluted in a 1:4 ratio in the assay by the addition of inhibitor and substrate to give a final concentration in the assay of […].
10 mM stock solutions of inhibitors are made up in dimethyl sulfoxide and then diluted in assay buffer as per the inhibitor dilution scheme for inhibition of human collagenase (MMP-1): Twenty-five microliters of each concentration is added in triplicate to the microfluor plate. The final concentrations in the assay are 30 mM, 3mM, 0.3 mM, and 0.03 mM.
Substrate (Dnp-Pro-Cha-Gly-Cys(Me)-His-Ala-Lys(NMA)-NH2) is prepared as for inhibition of human collagenase (MMP-1) and […] is added to each well to give a final assay concentration of […]. Fluorescence readings (360 nm excitation; 450 emission) are taken at time 0 and every 5 minutes for 1 hour.
Positive controls consist of enzyme and substrate with no inhibitor and blanks consist of substrate only.
IC50's are determined as per inhibition of human collagenase (MMP-1). If IC50's are reported to be less than […], inhibitors are then assayed at final concentrations of 0.3 mM, 0.03 mM, 0.003 mM and 0.0003 mM.

| IC50 [1] | IC50 (Human recombinant MMP-13) | SMILES |
| --- | --- | --- |
| 3.5 µM and 2 µM and 4.8 µM | 0.0057 µM and 0.0023 µM and 0.008 µM | CC(C)(C(=O)NO)N(CCC(=O)O)S(=O)(=O)c1ccc(Oc2ccc(F)cc2)cc1 [Example 4, 3-[[4-(4-FLUOROPHENOXY)BENZENESULFONYL)-(1-HYDROXYCARBAMOYL-1-METHYLETHYL)AMINO]PROPIONIC ACID] |
| 0.36 µM and 0.2 µM | 0.0012 µM and 0.0006 µM | O=C(O)CCN(C1(C(=O)NO)CCCC1)S(=O)(=O)c1ccc(Oc2ccc(F)cc2)cc1 [Example 2, 3-[[4-(4-FLUOROPHENOXY)BENZENESULFONYL]-(1-HYDROXYCARBAMOYLCYCLOPENTYL) AMINO]PROPIONIC ACID] |
| 1.2 µM and 1.8 µM | 0.0016 µM and 0.0023 µM | CCOC(=O)CCN(C(C)(C)C(=O)NO)S(=O)(=O)c1ccc(Oc2ccc(F)cc2)cc1 [Example 3, 3-[[4-(4-FLUOROPHENOXY)BENZENESULFONYL]-(1-HYDROXYCARBAMOYL-1-METHYLETHYL)AMINO]PROPIONIC ACID ETHYL ESTER] |
